Patent US6759403B2, “Metalloporphyrins and their uses as radiosensitizers for radiation therapy” (Brookhaven Science Associates, LLC, priority 2001, dated 2004)

Tests used:
EMT-6 mammary carcinomas [1] = experiment: Biodistribution study of CuTCPBr in mice with EMT-6 mammary carcinomas on the back (Example 5); assay type: in vivo, BALB/c mice; details: for Boron Concentration, Tumor / Boron Concentration, Blood / Boron Concentration, Brain / Boron Concentration, Ears (skin) / Boron Concentration, Liver / Boron Concentration, Spleen / Boron Concentration, Tongue: 6 ip injections over 2 days
Procedure: Two groups of seven (7) BALB/c mice bearing EMT-6 mammary carcinomas on the back were given CuTCPBr at a dose of 432 μg/g body weight (94 μg B/gbw) in six intraperitoneal injections over two days. Two days after the last injection, the mice in one group were euthanized and the boron concentrations in various tissues were measured. Four days after the last injection, the same procedure was carried out on the second group of mice. The average boron concentrations (mean with standard deviation in parentheses) for the two groups of mice injected with CuTCPBr are listed in the second and third columns of Table 4.
The tumor to blood boron concentration ratio after two days was approximately 8:1 and after four days it increased to 232:1. The tumor to brain boron concentration ratio after two days was approximately 197:1 and after four days it increased to 225:1.

[2] = system: subcutaneous 9L gliosarcomas; experiment: Boron biodistribution after intravenous infusion in rat 9L gliosarcoma model (Examples 6 and 7); assay type: in vivo, Fischer 344 rats
Procedure: This example used the experimental rat 9L gliosarcoma model and the protocol used to administer porphyrins by intravenous infusion that were reported in J. NeuroOncol, 52, 111-117, 2001. Six (6) male Fischer 344 rats bearing subcutaneous 9L gliosarcomas were infused intravenously with CuTCPBr at a total dose of 220 μg/gbw over 48 hours. Tumor and blood were sampled from each at zero, one, two and three days after the end of infusion and the boron concentrations measured. In this example, the biodistribution of CuTCPBr was compared to CuTCPH. A group of six (6) male Fischer 344 rats bearing subcutaneous 9L gliosarcomas were infused intravenously with CuTCPBr at a total dose of 220 μg/gbw over 48 hours. A second group of four (4) male Fischer 344 rats bearing subcutaneous 9L gliosarcomas were infused intravenously with CuTCPH at a total dose of 195 μg/gbw. over 48 hours. Boron concentrations in tissues from both groups of rats were taken three days after the end of infusion. The results for the CuTCPBr group of rats are listed in column 2 of Table 6 and the results for the CuTCPH group of rats are listed in column 4 of Table 6. To account for the difference in porphyrin dose (195 μg/gbw for CuTCPH versus 220 μg/gbw for CuTCPBr) and the difference in % boron in each porphyrin (31.8% for CuTCPH versus 21.7 for CuTCPBr), the boron concentrations in tissues from rats given CuTCPBr were normalized so that they would be equivalent to the boron concentrations of rats given CuTCPH. This was done by multiplying the boron concentrations in the CuTCPBr group of rats by the CuTCPBr to CuTCPH boron dose ratio of 1.3. The normalized boron concentrations for the CuTCPBr group of rats are listed in column 3 of Table 6.

EMT-6 mammary carcinomas [3] = experiment: Boron biodistribution in mice with EMT-6 tumors of the dorsal thorax (Example 2); assay type: in vivo, BALB/c mice; details: 186 μg CuTCPBr/g body weight total, 6 ip injections over 2 days; 4 days after last injection
Procedure: Five BALB/c mice bearing subcutaneously implanted EMT-6 mammary carcinomas on the dorsal thorax were given a total dose of 186 μg CuTCPBr/g body weight in 6 intraperitoneal (ip) injections over a period of 2 days. Four days after the last injection mice were euthanized and the average boron concentrations (μg/g wet tissue) were measured for different types of tissue.

[4] = CuTCPBr 432 μg/g body weight, after 2 days
[5] = CuTCPBr 432 μg/g body weight, after 4 days
[6] = 220 μg/gbw CuTCPBr (47.7 μg B/gbw) iv over 48 hours, 3 days after end of infusion
[7] = CuTCPBr 220 μg/gbw iv infusion over 48 hours, 0 days after end of infusion
[8] = CuTCPBr 220 μg/gbw iv infusion over 48 hours, 1 day after end of infusion
[9] = CuTCPBr 220 μg/gbw iv infusion over 48 hours, 2 days after end of infusion
[10] = CuTCPBr 220 μg/gbw iv infusion over 48 hours, 3 days after end of infusion
[11] = normalized to boron dose 61.8 μg B/gbw (x1.3), 3 days after end of infusion

**Q.** For “copper octabromotetracarboranylphenylporphyrin [CuTCPBr]”, which “Boron Concentration, Tumor” value (EMT-6 mammary carcinomas [1]; CuTCPBr 432 μg/g body weight (94 μg B/gbw), after 2 days) is on record?
**A.** Its value is 256 (51) μg/g.

**Q.** And the “Boron Concentration, Blood” value (EMT-6 mammary carcinomas [1]; [4])?
**A.** The value was 30 (12) μg/g.

**Q.** And the “Boron Concentration, Brain” value (EMT-6 mammary carcinomas [1]; [4])?
**A.** The value was 1.3 (0.4) μg/g.

**Q.** And the “Boron Concentration, Ears (skin)” value (EMT-6 mammary carcinomas [1]; [4])?
**A.** Its value is 16 (4.3) μg/g.

**Q.** What about the “Boron Concentration, Liver” value (EMT-6 mammary carcinomas [1]; [4]) of the same substance?
**A.** Its value is 831 (102) μg/g.

**Q.** And the “Boron Concentration, Spleen” value (EMT-6 mammary carcinomas [1]; [4])?
**A.** The value was 507 (60) μg/g.

**Q.** What about the “Boron Concentration, Tongue” value (EMT-6 mammary carcinomas [1]; [4]) of the same substance?
**A.** Its value is 43 (4.1) μg/g.

**Q.** What about the “Boron Concentration, Blood” value (EMT-6 mammary carcinomas [1]; [5]) of the same substance?
**A.** Its value is 0.8 (0.2) μg/g.

**Q.** What about the “Boron Concentration, Brain” value (EMT-6 mammary carcinomas [1]; [5]) of the same substance?
**A.** The value was 0.7 (0.1) μg/g.

**Q.** What about the “Boron Concentration, Ears (skin)” value (EMT-6 mammary carcinomas [1]; [5]) of the same substance?
**A.** Its value is 12 (1.6) μg/g.

**Q.** And the “Boron Concentration, Liver” value (EMT-6 mammary carcinomas [1]; [5])?
**A.** Its value is 592 (24) μg/g.

**Q.** What about the “Boron Concentration, Spleen” value (EMT-6 mammary carcinomas [1]; [5]) of the same substance?
**A.** The value was 336 (40) μg/g.

**Q.** And the “Boron Concentration, Tongue” value (EMT-6 mammary carcinomas [1]; [5])?
**A.** The value was 37 (4.0) μg/g.

**Q.** And the “Boron Concentration, Tumor” value (EMT-6 mammary carcinomas [1]; [5])?
**A.** Its value is 180 (27) μg/g.

**Q.** And the “decrease of liver boron from two to four days” value (EMT-6 mammary carcinomas [1]; CuTCPBr 432 μg/g body weight, indicates faster clearance time)?
**A.** Its value is 29%.

**Q.** What about the “Boron Concentration, Brain” value [2, 6] of the same substance?
**A.** Its value is 0.4 (0) μg/g.

**Q.** What about the “Boron Concentration, Kidney” value [2, 6] of the same substance?
**A.** The value was 11 (1) μg/g.

**Q.** What about the “Boron Concentration, Lacrimal Gland” value [2, 6] of the same substance?
**A.** Its value is 28 (13) μg/g.

**Q.** And the “Boron Concentration, Liver” value [2, 6]?
**A.** The value was 477 (25) μg/g.

**Q.** What about the “Boron Concentration, Lung” value [2, 6] of the same substance?
**A.** The value was 123 (42) μg/g.

**Q.** What about the “Boron Concentration, Lymph Nodes” value [2, 6] of the same substance?
**A.** Its value is 202 (32) μg/g.

**Q.** What about the “Boron Concentration, Parotid Gland” value [2, 6] of the same substance?
**A.** Its value is 85 (36) μg/g.

**Q.** And the “Boron Concentration, Spinal Cord” value [2, 6]?
**A.** Its value is 0.9 (0.4) μg/g.

**Q.** And the “Boron Concentration, Spleen” value [2, 6]?
**A.** Its value is 632 (41) μg/g.

**Q.** And the “Boron Concentration, Submaxillary Gland” value [2, 6]?
**A.** The value was 68 (8) μg/g.

**Q.** And the “Boron Concentration, Tongue” value [2, 6]?
**A.** Its value is 30 (3) μg/g.

**Q.** What about the “Boron concentration, Ears” value [2, 6] of the same substance?
**A.** The value was 8.4 (1.2) μg/g.

**Q.** What about the “Boron Concentration, Tumor” value ([2]; CuTCPBr 220 μg/gbw (47.7 μg B/gbw) iv infusion over 48 hours, 3 days after end of infusion) of the same substance?
**A.** The value was 52 (19) μg/g.

**Q.** What about the “Boron Concentration, Blood” value [2, 7] of the same substance?
**A.** Its value is 360 (30) μg/g.

**Q.** What about the “Boron Concentration, Tumor” value [2, 7] of the same substance?
**A.** Its value is 67 (26) μg/g.

**Q.** And the “Tumor to Blood Ratio (boron)” value [2, 7]?
**A.** Its value is 0.19.

**Q.** What about the “Boron Concentration, Blood” value [2, 8] of the same substance?
**A.** Its value is 150 (20) μg/g.

**Q.** What about the “Boron Concentration, Tumor” value [2, 8] of the same substance?
**A.** The value was 64 (17) μg/g.

**Q.** And the “Tumor to Blood Ratio (boron)” value [2, 8]?
**A.** The value was 0.43.

**Q.** What about the “Boron Concentration, Blood” value [2, 9] of the same substance?
**A.** Its value is 23 (7) μg/g.

**Q.** And the “Boron Concentration, Tumor” value [2, 9]?
**A.** Its value is 75 (34) μg/g.

**Q.** And the “Tumor to Blood Ratio (boron)” value [2, 9]?
**A.** The value was 3.3.

**Q.** What about the “Boron Concentration, Blood” value [2, 10] of the same substance?
**A.** Its value is 1.4 (0.1) μg/g.

**Q.** What about the “Tumor to Blood Ratio (boron)” value [2, 10] of the same substance?
**A.** Its value is 38.

**Q.** What about the “Boron Concentration, Brain, CuTCPBr Normalized” value [2, 11] of the same substance?
**A.** The value was 0.5 µg/g.

**Q.** What about the “Boron Concentration, Ears, CuTCPBr Normalized” value [2, 11] of the same substance?
**A.** The value was 11 µg/g.

**Q.** And the “Boron Concentration, Kidney, CuTCPBr Normalized” value [2, 11]?
**A.** Its value is 14 µg/g.

**Q.** And the “Boron Concentration, Lacrimal Gland, CuTCPBr Normalized” value [2, 11]?
**A.** Its value is 37 µg/g.

**Q.** What about the “Boron Concentration, Liver, CuTCPBr Normalized” value [2, 11] of the same substance?
**A.** The value was 623 µg/g.

**Q.** What about the “Boron Concentration, Lung, CuTCPBr Normalized” value [2, 11] of the same substance?
**A.** The value was 161 µg/g.

**Q.** What about the “Boron Concentration, Lymph Nodes, CuTCPBr Normalized” value [2, 11] of the same substance?
**A.** Its value is 264 µg/g.

**Q.** And the “Boron Concentration, Parotid Gland, CuTCPBr Normalized” value [2, 11]?
**A.** The value was 111 µg/g.

**Q.** What about the “Boron Concentration, Spinal Cord, CuTCPBr Normalized” value [2, 11] of the same substance?
**A.** The value was 1.2 µg/g.

**Q.** What about the “Boron Concentration, Spleen, CuTCPBr Normalized” value [2, 11] of the same substance?
**A.** The value was 825 µg/g.

**Q.** And the “Boron Concentration, Submaxillary Gland, CuTCPBr Normalized” value [2, 11]?
**A.** Its value is 89 µg/g.

**Q.** And the “Boron Concentration, Tongue, CuTCPBr Normalized” value [2, 11]?
**A.** Its value is 39 µg/g.

**Q.** And the “Boron Concentration, Tumor, CuTCPBr Normalized” value [2, 11]?
**A.** The value was 68 µg/g.

**Q.** What about the Toxicity ([2]; rats, 220 μg/gbw CuTCPBr or 195 μg/gbw CuTCPH iv over 48 hours) of the same substance?
**A.** The Toxicity was “does not appear to be a major problem”.

**Q.** And the “Boron Concentration, Blood” value (EMT-6 mammary carcinomas [3])?
**A.** Its value is 0.6 ± 0.2 μg B/g wet tissue.

**Q.** And the “Boron Concentration, Brain” value (EMT-6 mammary carcinomas [3])?
**A.** Its value is 0.5 ± 0.1 μg B/g wet tissue.

**Q.** And the “Boron Concentration, Liver” value (EMT-6 mammary carcinomas [3])?
**A.** Its value is 272 ± 93 μg B/g wet tissue.

**Q.** And the “Boron Concentration, Tumor” value (EMT-6 mammary carcinomas [3])?
**A.** The value was 84 ± 15 μg B/g wet tissue.
